# In ChEMBL document CHEMBL3507680, “University of Dundee, Gates Library screen for HepG2 cell viability”:
# Assay: Human HepG2 cell viability assay in 384 well format
# Assay type: toxicity, cell-based
# Parameters: dose 125 nL, time 70.5 hour; cytotoxicity at 70.5 h: concentration not given beside the values
# Details: HepG2 cells, read-out: Inhibition
row,SMILES,cytotoxicity at 70.5 h [%]
1,CC(C)c1nc(C2CCCN(C(=O)CN3CCN(C)CC3)C2)no1 (stereo not drawn),-7.22
2,CC(C)=CCS(=O)(=O)Cc1ccn(-c2cccc(F)c2)n1,-6.79
3,CCn1nc(C)c(CNC(=O)NCC(C)(O)c2ccccc2)c1C (stereo not drawn),-3.1
4,CC(C)c1nc(C2CCCN(C(=O)CN3CCCNC3=O)C2)no1 (stereo not drawn),-6.67
5,CC(C)NC(=O)CCNC(=O)Nc1cnn(-c2ccccc2Cl)c1,-6.67
6,CCOC(=O)c1cnn(-c2cc(C)ccn2)c1N,8.9
7,CCN1CCCN(c2ccc(-n3ccc(C)n3)nn2)CC1,10.6
8,CC(C)(C(=O)NCCS(N)(=O)=O)c1cccc(Br)c1,-6.85
9,CC(CCc1ccccc1F)C(=O)NS(=O)(=O)CC1CC1 (stereo not drawn),-0.115
10,CC(=O)c1c(C)cc(C)c(CS(=O)(=O)c2nccn2C)c1C,8.95
11,CC1CN(S(=O)(=O)c2ccc(F)cc2F)c2cccnc2O1 (stereo not drawn),-6.28
12,Cc1ccc(S(=O)(=O)N2CC(C)Oc3ncccc32)c(C)c1 (stereo not drawn),-4.94
13,CCOC(=O)C1CCN(C(=O)CN2CCCC2Cc2ccccc2)CC1 (stereo not drawn),-17.2
14,Cn1cc(C2(C)CN(Cc3ccc(N4CCCC4)nc3)CCO2)cn1 (stereo not drawn),-10.5
15,CCc1ccc(C(C)NC(=O)CN(C)Cc2ccc(C)o2)cc1 (stereo not drawn),-15
16,N#CCCNC(=O)CSc1cc(F)ccc1F,-9.07
17,O=C(NCC(O)c1ccc(F)cc1F)c1ccccc1 (stereo not drawn),-4.27
18,Cc1cccc(C(=O)NCC(O)c2ccc(F)cc2F)c1 (stereo not drawn),-0.893
19,CN(CCC#N)C(=O)CSc1cc(F)ccc1F,5.2
20,N#CCCNC(=O)CSc1ccc(F)cc1F,-5.86
21,Cc1nc(NC(=O)C(C)N2CCN(c3cnccn3)CC2)sc1C (stereo not drawn),-4.32
22,Cc1cccc(C(=O)NCc2ccc(OCCN(C)C)cc2)c1C,-6.51
23,COc1c(C)cnc(CNC(=O)c2cc(C)nc3c2c(C)nn3C)c1C,-6.5
24,Cc1cc(CN(C)C(=O)NCc2ccnc(N(C)C)c2)no1,-1.17

row,SMILES,cytotoxicity at 70.5 h [%]
1,CCCS(=O)(=O)N1CCC(NCc2c(C)nn(C)c2OC)CC1,-7.02
2,COc1c(CNC2CCN(CC(=O)NC3CC3)CC2)c(C)nn1C,2.59
3,N#Cc1ccccc1N1CCN(C(=O)NCCN2CCOCC2)CC1,0.377
4,CC(C)Nc1cccc(C(=O)NCC(O)c2cccc(F)c2)c1 (stereo not drawn),-6.04
5,Fc1ccc(-c2n[nH]cc2CNCCn2cccn2)cc1,-4.83
6,Fc1ccc(CNCCn2cccn2)c(Cl)c1,6.68
7,COc1ccc(F)cc1C[S+]([O-])CC(=O)NCc1ccccc1C (stereo not drawn),11
8,Cc1ncsc1CCN1CCC(N(C)Cc2ncc(C(C)C)o2)C1 (stereo not drawn),38.4
9,NC(=O)CN1CCN(c2ccnc3c(F)ccc(F)c23)CC1,-1.57
10,CN(C)C(=O)CN1CCN(c2ccnc3c(F)ccc(F)c23)CC1,-4.33
11,Cc1cc(NC(=O)CNC(C)(C)c2ccc3c(c2)OCO3)on1,-2.77
12,NC(=O)c1cnc(NC2CCN(c3ccccn3)CC2)c(Cl)c1,-6.48
13,Cc1cc(NC(=O)CNC(C)(C)c2ccc3c(c2)OCCO3)no1,2.35
14,CCOCCCC(=O)Nc1c(-c2ccc(F)cc2)ncn1C,0.124
15,Cc1[nH]c(=O)sc1S(=O)(=O)N1CCCC1C(=O)NC1CC1 (stereo not drawn),-6.92
16,CCOCC(=O)Nc1cc(C)cnc1OC,-3.98
17,CCOCCC(=O)Nc1cc(C)cnc1OC,14.7
18,CCc1nc(CNC(=O)Nc2nc(COC)cs2)cs1,-5.86
19,O=C(c1csc(-c2ccco2)n1)N1CCN2CCCCC2C1 (stereo not drawn),-4.49
20,Cc1ccc(OCCC(=O)NCCCN2CCCC2=O)c(C)c1,17.8
21,CCc1ncc2c(n1)CN(CC(O)COc1ccc(C#N)cc1)CC2 (stereo not drawn),-0.808
22,COc1cccc2[nH]cc(CCNC(=O)N3CCC[C@H]3CO)c12,-1.09
23,COc1cc2c(nn1)CCN(CC(O)COc1ccc(C#N)cc1)C2 (stereo not drawn),17.8
24,CCS(=O)(=O)NCCCNc1cc(N2CCCC2CO)ncn1 (stereo not drawn),-4.09

row,SMILES,cytotoxicity at 70.5 h [%]
1,O=C(NCCNc1ncccn1)N1CCCC1c1ccc(F)cc1 (stereo not drawn),-9.37
2,O=C(NCC(F)(F)F)C1CSCN1S(=O)(=O)c1cccc(F)c1 (stereo not drawn),-12
3,COCC(=O)NCCCn1nc2ccccn2c1=O,-15.5
4,CC(C)c1nn(C)c(N2CCOCC2)c1CNCc1cscn1,-14.5
5,COc1ccccc1C(=O)NCCCN1CCCC1C(=O)N(C)C (stereo not drawn),-14.3
6,O=C(CCc1ccccn1)N1CCCC(N2CCNC2=O)C1 (stereo not drawn),-14.8
7,CN(C)C(=O)C1CCCN1CCCNC(=O)c1cccc2[nH]ncc12 (stereo not drawn),12.2
8,Cc1cc(C)n(CC2CCCN2C(=O)c2ccc3[nH]c(=O)[nH]c3c2)n1 (stereo not drawn),-17.4
9,Cc1cc(C)n(CC2CCCN2C(=O)c2ccc3[nH]cnc3c2)n1 (stereo not drawn),-9
10,CSCC(CCO)NC(=O)Nc1ccc(C)cc1C (stereo not drawn),-14.5
11,CSCC(CCO)NC(=O)Nc1ccc(C)cc1Br (stereo not drawn),0.54
12,Cc1cn(-c2ccccc2)nc1NS(=O)(=O)c1cc(C(=O)O)sc1C,-18.9
13,Cc1cn(-c2ccccc2)nc1NS(=O)(=O)c1cc(C(=O)O)ccc1Cl,-9.13
14,O=C(CCc1ccncc1)N1CCCC(N2CCNC2=O)C1 (stereo not drawn),-19.2
15,Cc1cc(CNCc2c(C(C)C)nn(C)c2N2CCOCC2)no1,-6.34
16,Cc1ccc(CNCc2c(C(C)C)nn(C)c2N2CCOCC2)s1,-19.6
17,Cc1nc(C)n(CC2CCCN2CC(=O)NCCC#N)n1 (stereo not drawn),-19.9
18,CCOCCC1(C(=O)N2CCCC(c3ncc[nH]3)C2)CCCC1 (stereo not drawn),-16.4
19,Cc1nc(C)n(CC2CCCN2CC(=O)NCCc2ccsc2)n1 (stereo not drawn),3.16
20,Cc1nc(C)n(CC2CCCN2CC(=O)NCCC2=CCCCC2)n1 (stereo not drawn),-9.96
21,Cc1cc(C)n(CC2CCCN2C(=O)c2ccc3c(c2)COC3)n1 (stereo not drawn),-13.3
22,Cc1nc(C)n(CC2CN(CCc3ccccc3Cl)CCO2)n1 (stereo not drawn),39.5
23,CC(C)n1cc(CN2CCCN(C(=O)c3ccoc3)CC2)cn1,27.6
24,Cc1ccc(OCCCC(=O)NC(C)c2ccc(S(N)(=O)=O)cc2)cc1 (stereo not drawn),34.1

row,SMILES,cytotoxicity at 70.5 h [%]
1,Cc1ccc(NC(C)C(=O)NCc2cccs2)cc1Cl (stereo not drawn),5.9
2,Cc1ccc(S(N)(=O)=O)cc1C(=O)NCC1Cc2ccccc2O1 (stereo not drawn),-3.82
3,CS(=O)(=O)Cc1ccc(C(=O)NCC2Cc3ccccc3O2)cc1 (stereo not drawn),-0.3
4,Cc1nccn1-c1cc(CNC(=O)N2CCSCC2)ccn1,-3.48
5,Cc1nccn1-c1cc(CNC(=O)CCNC(=O)OC(C)(C)C)ccn1,-7.58
6,CS(=O)(=O)c1cccc(C(=O)NCC2Cc3ccccc3O2)c1 (stereo not drawn),-5.79
7,Cc1cc(C)c(S(N)(=O)=O)cc1C(=O)NCC1Cc2ccccc2O1 (stereo not drawn),-5.64
8,CC(Oc1ccccc1C(F)(F)F)C(=O)NCC(=O)N1CCCC1 (stereo not drawn),-6.07
9,COC(=O)CNC(=O)C(C)Oc1ccccc1C(F)(F)F (stereo not drawn),-3.31
10,Cc1cc(C(=O)N2CCCN(Cc3cnn(C(C)C)c3)CC2)no1,-3
11,COc1ccsc1C(=O)N1CCCC1c1c(C)nn(C)c1OC (stereo not drawn),-4.7
12,O=C1CC(Cc2ccc(NC(=O)c3cccc(F)c3)cc2)C(=O)N1 (stereo not drawn),-3.69
13,CC1CN(C)c2ccccc2CN1C(=O)c1ccoc1 (stereo not drawn),10
14,Cc1ccoc1C(=O)NCCOc1ncc(Cl)cc1Cl,-4.36
15,CC1CN(C)c2ccccc2CN1C(=O)c1cc[nH]c(=O)c1 (stereo not drawn),-0.482
16,Cc1cc(C)n(CC2CN(CCc3ccncc3)CCO2)n1 (stereo not drawn),-2.71
17,CC(C)n1cc(CN2CCCN(C(=O)c3ccnn3C)CC2)cn1,-2.89
18,COCCOCCNC(=O)C(C)Oc1ccccc1C(F)(F)F (stereo not drawn),-5.94
19,COC(=O)C(O)C1CCN(Cc2cccc(-n3cccn3)c2)CC1 (stereo not drawn),-1.06
20,O=C(c1cncc(Br)c1)N1CCCc2ccc(F)cc21,-5.54
21,Cc1cccc(N(CCC(N)=O)CC(=O)Nc2ccccc2)c1,0.933
22,COCc1cccc(NC(=O)NCc2ncc(C)c(OC)c2C)c1,0.253
23,Cc1cc(NC(=O)CSc2nc(=O)ccn2C(C)C)no1,-0.711
24,O=C1C(NCc2ccccc2O)CCN1Cc1ccccc1 (stereo not drawn),18.3

row,SMILES,cytotoxicity at 70.5 h [%]
1,O=C(c1cc[nH]n1)N(Cc1ccc(F)cc1)CC1CC1,0.0679
2,COCCNc1ccc(CNC(=O)C2COc3ccccc32)cc1 (stereo not drawn),19.2
3,Cc1nccc(CNC(=O)NCC(C)Oc2ccccc2F)n1 (stereo not drawn),10.9
4,CNC(=O)c1ccc(Cn2ccnc2S(C)(=O)=O)cc1,-0.546
5,CCn1ccnc1S(=O)(=O)Cc1ccc(C(N)=O)cc1,-2.48
6,CS(=O)(=O)c1nccn1Cc1ccc(Cl)cc1,-5.04
7,CCS(=O)(=O)CC(=O)Nc1cccc2c1CN(CC(C)C)C2,-0.0392
8,CN(C(=O)CCNC(=O)C1COc2ccccc21)c1ccccc1 (stereo not drawn),-6.34
9,Cc1cc(C)n(CC(=O)NC2CCCCNC2=O)n1 (stereo not drawn),-6.78
10,Cc1ccc(S(=O)(=O)NC(=O)CCOCC(C)C)s1,8.21
11,CCC(Nc1nnnn1-c1ccccc1)C(=O)Nc1nc(C)cs1 (stereo not drawn),-12.4
12,CCC(Nc1nnnn1-c1ccccc1)C(=O)NCc1ccsc1 (stereo not drawn),-12.5
13,CC(=O)N1CCN(C(=O)CNc2cccc(OC(F)F)c2C)CC1,-1.78
14,Cc1noc(C)c1CN(C)C(=O)COc1cccc(C#N)c1,-10.8
15,CCC1CN(C(=O)c2csc(-c3cnn(C)c3)n2)CCO1 (stereo not drawn),-10.2
16,COCCCN(C)S(=O)(=O)c1ccc(C(F)(F)F)cc1C#N,-10.6
17,CCN(CC)S(=O)(=O)c1ccc(C(F)(F)F)cc1C#N,-8.21
18,CN(CC1CC1)S(=O)(=O)c1ccc(C(F)(F)F)cc1C#N,-11.7
19,CCC(C)(C)NC(=O)CSCc1ccc(S(=O)(=O)N(C)C)o1,-9.79
20,COc1ccsc1C(=O)Nc1cc(Br)c(=O)n(C)c1,-4.19
21,Cc1csc(C(C#N)C(=O)NCc2ccccc2)n1 (stereo not drawn),-6.71
22,O=C1C(NCc2ccc3c(c2)CCO3)CCN1Cc1ccccc1 (stereo not drawn),-14.7
